Measured values published in patent publication US20220304992A1, “METHODS OF REJUVENATING AGED TISSUE BY INHIBITING 15-HYDROXYPROSTAGLANDIN DEHYDROGENASE (15-PGDH)” (The Board of Trustees of the Leland Stanford Junior …, priority 2019, published 2022).
Entries after “also recorded” stand apart in the source; their conditions may differ.

Legend:
myotubes = assay: Differentiated (starved) cultured myotubes: Atrogin1 expression and diameter; type: cell-based, mouse; details: starved (24 hr) or non-starved myotubes; PGE2 10 ng/ml, SW 1 μM; listed as SW
Description: For myotubes we performed fixation using 4% PFA, blocking and permeabilization using PBS/1% BSA/0.1% Triton X-100 and staining with primary antibodies anti-MyHC (Thermo Fisher Scientific, catalog #14-6503-82, clone MF-20, 1:500) and then with AlexaFluor secondary Antibodies (Jackson ImmunoResearch Laboratories, 1:500). We counterstained nuclei with DAPI (Invitrogen).
Primary myoblasts were grown in myogenic cell culture medium containing DMEM/F10 (50:50), 15% FBS, 2.5 ng ml-1 fibroblast growth factor-2 and 1% penicillin-streptomycin. For differentiation experiments, confluent myoblasts were grown in medium containing 5% horse serum, DMEM. […] Myoblasts were isolated from EP4^fl/fl mice and received either a mCherry/Cre lentivirus or a mock infection as previously described (5).
For cultured myotubes we performed fixation using 4% PFA, blocking and permeabilization using PBS/1% BSA/0.1% Triton X-100 and staining with primary antibodies anti-MYH (Thermo Fisher Scientific, catalog #14-6503-82, clone MF-20, 1:500) and then with AlexaFluor secondary Antibodies (Jackson ImmunoResearch Laboratories, 1:500). We counterstained nuclei with DAPI (Invitrogen). We acquired images using the KEYENCE BZ-X700 all-in-one fluorescence microscope (Keyence) with 20x/0.75 N.A. objectives. We analyzed the fiber area using the Keyence Advanced Analysis Software. For fiber area the entire maximum cross-sectional area of the muscle was quantified or at least 10 fields of LAMININ or WGA stained myofiber cross-sections encompassing over 400 myofibers were captured for each mouse as above. For fiber typing analysis, the MATLAB application SMASH-Semi-Automatic Muscle Analysis Using Segmentation of Histology, was used as previously described (12). Data analyses were blinded. The researchers performing the imaging acquisition and scoring were unaware of treatment condition given to sample groups analyzed.
Primary murine myoblasts were grown in myogenic cell culture medium containing DMEM/F10 (50:50), 15% FBS, 2.5 ng ml^−1 fibroblast growth factor-2 and 1% penicillin-streptomycin. […] For differentiation experiments, confluent myoblasts were grown in medium containing 5% horse serum, DMEM.

[1] = test system: aged mice with PTGDS knockdown; assay: SW treatment of aged mice with AAV9 shRNA knockdown of PTGDS; type: in vivo, mouse; details: aged muscles, SW one month
Description: Middle aged (18-20 mo.) and aged (>24 mo.) mice C57BL/6 were obtained the US National Institute on Aging (NIA) for aged muscle studies, and young (2-4 mo.) wild-type C57BL/6 mice from Jackson Laboratory. […] Time and distance to exhaustion was performed as previously described (4) for SW-treated mice and their controls.
Overexpression of Hpgd (15-PGDH) was achieved by integrating AAV9 under CMV promoter and with eGFP under IRES (AA9-CMV-m-HPGD-IRES-eGFP) (Vector Biolabs). The control virus was AAV9-tMCK-eGFP-WPRE.
The peak isometric torque (N·mm) of the ankle plantarflexors was assessed as previously described (21, 22). Briefly, the foot of anesthetized mice was placed on a footplate attached to a servomotor (model 300C-LR; Aurora Scientific). Two Pt-Ir electrode needles (Aurora Scientific) were inserted percutaneously and subcutaneously over the tibial nerve, just posterior/posterior-medial to the knee. The ankle joint was secured at a 90° angle. The peak isometric torque was achieved by varying the current delivered to the tibial nerve at a frequency of 200 Hz and a 0.1—ms square wave pulse. We performed three tetanic measurements on each muscle, with 1 min recovery between each measurement. Data were collected with the Aurora Scientific Dynamic Muscle Data Acquisition and Analysis Software.

[2] = test system: aged muscle transcriptome; assay: RNA sequencing of vehicle and SW treated aged muscles; type: in vivo, mouse; details: SW 1 month
Text: For RNA-seq, RNA was isolated from muscle lysates using Trizol reagent (Thermoscientific) and purified using Qiagen RNAEasy kit from. Libraries were constructed from RNA with the TruSEQ RNA Library Preparation Kit v2 (Illumina) and sequenced to 30-40×10^6×75-bp reads per sample on a NextSeq 550 from the Stanford Functional Genomics Facility.
For the RNA-Seq analysis, the sequences were aligned against the Mus musculus genome (mm9) using STAR (16). RSEM was used for calling transcripts and calculating transcripts per million (TPM) values as well as total counts (17). A counts matrix containing the number of counts for each gene and each sample was obtained. This matrix was analyzed by DESeq2 to calculate statistical analysis of significance of genes between samples (18). […] Heatmaps were generated on normalized counts and plotted on Z-score across rows using Seaborn data visualization library in python. The data reported in this paper have been deposited in the Gene Expression Omnibus (GEO) database GSE149924.

For `CCCC[S+]([O-])c1sc2nc(-c3cccs3)cc(-c3ccccc3)c2c1N` (stereo not drawn) [SW033291, 2-(butylsulfinyl)-4-phenyl-6-(thiophen-2-yl)thieno[2,3-b]pyridin-3-amine], the myotube diameter (myotubes) was “no increase; also recorded: no effect”, the endurance [1] was “increase” and the muscle force [1] was “increase”. The muscle mass [1] was “increase”, the Hdac4 expression [2] was “diminished” and the “components of mitochondria complexes I, II, IV and V of the electron transport chain” value [2] was “markedly increased”. The “members of ubiquitin signaling pathways” value [2] was “downregulated”, the “mitochondrial pathways (KEGG/GO enrichment of upregulated genes)” value [2] was “strong enrichment” and the “expression of TGF-beta pathway genes (Mstn, Tgfb2, Acvr2a, Smad3)” value ([2]; listed as SW) was “decreased; also recorded: markedly reduced”.
